This is an account of results in publication PMC9602571, “Discovery of a Dual SENP1 and SENP2 Inhibitor” (International Journal of Molecular Sciences, 2022).

Structures are written as SMILES. Like-named read-outs stand apart in the source and are kept apart here.

The target of data set [1] is T1, SENP1 (Homo sapiens, UniProt Q9P0U3).
T1 construct: Human recombinant, His6-SENP1 Catalytic Domain; His6 (N); purchased Boston Biochem (Bio-Techne AG) E-700
T1 sequence (Q9P0U3 450-613 limits assumed): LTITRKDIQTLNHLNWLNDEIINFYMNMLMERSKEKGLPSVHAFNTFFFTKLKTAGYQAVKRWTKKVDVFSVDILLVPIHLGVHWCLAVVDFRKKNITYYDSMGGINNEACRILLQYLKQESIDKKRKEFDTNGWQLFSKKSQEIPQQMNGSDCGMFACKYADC
Briefly: Fluorogenic SENP1 assay, SUMO1-AMC substrate. In kind it is biochemical. The following applies: for LE (ligand efficiency): calculated: 1.4(-logIC50)/N; for reduced inhibition by a factor: compared to hit compound 11. As for the experimental part: Human recombinant, His6-SENP1 Catalytic Domain (Boston Biochem Cat# E-700, Bio-Techne AG, Zug, Switzerland) was prepared in reaction buffer (50 mM HEPES, 150 mM NaCl, 0.5 mM EDTA, 1 mM DTT, pH 7.5, 0.01% CHAPS). To this solution, a 20 mM or 50 mM inhibitor stock solution in DMSO was added and the mixture was incubated for 15 min at ambient temperature. […] The slope was calculated using Excel and the curve fits were performed using GraphPad Prism7 with a four-parameter least-squares fit. The final reaction conditions contained 0.02 nM SENP1 and 300 nM SUMO1/2 or 3-AMC).

Setting [2] is: screening library samples, SUMO1-AMC, read-out: IC50 SENP1 of hit molecules.
Where [3] appears, read: SUMO1-AMC 300 nM, 0.02 nM SENP1, interval in parentheses, read-out: IC50 SENP1.

As a reminder, the IC50 is the concentration that gives 50% inhibition. For `Cc1c(C(=O)N2CCC(C)CC2)nnn1-c1cccc2c1CCN(Cc1ccccc1)C2` [Compound 12], the 50% inhibitory concentration (IC50) in data set [1] (setting [2]) amounted to 27 µM.
Take `CC1CCn2cc(C(=O)NC3CCn4cc(-c5ccc(F)cc5F)nc4C3)nc2C1` (stereo not shown) [Compound 13]: the IC50 in data set [1] (setting [2]) came to 28 µM.
The melting point is the temperature, or range, at which the solid turns liquid. Take `O=C1Nc2ccccc2NC12CCCC2` [Compound 15, 3′,4′-Dihydro-1′H-spiro[cyclopentane-1,2′-quinoxalin]-3′-one]: the melting point turned out to be 174 °C. The IC50 in data set [1] (setting [3]) worked out at 116 µM. The “LE (ligand efficiency)” value in data set [1] is 0.37.
A word on the inhibition: it is the drop in the measured response relative to a control, in per cent. Lower therefore signals a weak effect. `CC1(C)Nc2ccccc2NC1=O` [Compound 16, 3,3-Dimethyl-1,2,3,4-tetrahydroquinoxalin-2-one] displayed a melting point of 178 °C. In addition, the inhibition at 500 µM in data set [1] is approximately 50%. Besides, the IC50 in data set [1] (setting [3]) was more than 500 µM.
For the molecule `CC1(C)C(=O)Nc2ccccc2N1C(=O)Cn1nnc(-c2ccccc2)n1` [Compound 23, 3,3-Dimethyl-4-[2-(5-phenyl-2H-1,2,3,4-tetrazol-2-yl)acetyl]-1,2,3,4-tetrahydroquinoxalin-2-one], the melting point was 252 °C (dec.). In addition, the concentration for half-maximal inhibition (IC50) in data set [1] (setting [3]) came out at 12.3 µM. Besides, the “reduced inhibition by a factor” value in data set [1] came out at 1.5.
As for `O=C1CN(C(=O)Cn2nnc(-c3ccccc3)n2)c2ccccc2N1` [Compound 24, 4-[2-(5-Phenyl-2H-1,2,3,4-tetrazol-2-yl)acetyl]-1,2,3,4-tetrahydroquinoxalin-2-one], the melting point was 231 °C (dec.). Besides, the IC50 in data set [1] (setting [3]) was found to be 77.6 µM. For the same molecule, the “reduced inhibition by a factor” value in data set [1] was 10.
On to `O=C1CNc2ccccc2N1` [Compound 25, 1,2,3,4-tetrahydroquinoxalin-2-one], for which the half-inhibitory concentration (IC50) in data set [1] (setting [3]) was more than 500 µM.
Consider `O=C1Nc2ccccc2OC12CCCC2` [Compound 26, 3,4-Dihydrospiro [1,4-benzoxazine-2,1′-cyclopentan]-3-one], for which the melting point was 157 to 162 °C. In data set [1] (setting [3]), the IC50 was 78 µM. Moreover, the “LE (ligand efficiency)” value in data set [1] is on record as 0.38.
For `O=C1Nc2ccccc2NC12CCCCC2` [Compound 27, 3′,4′-Dihydro-1′H-spiro[cyclohexane-1,2′-quinoxalin]-3′-one], in that order: 230 to 234 °C (dec.), 261 µM and 0.31.
With `O=C1Nc2ccccc2NC12CCCCCCC2` [Compound 28, 3′,4′-Dihydro-1′H-spiro[cyclooctane-1,2′-quinoxalin]-3′-one], in data set [1] (setting [3]), the IC50 stood at 51 µM. The “LE (ligand efficiency)” value in data set [1] was 0.33.
For `O=C1Nc2ccccc2NC12CCC2` [Compound 29, 3′,4’-Dihydro-1′H-spiro[cyclobutane-1,2′-quinoxalin]-3′-one], in that order: 66 µM and 0.42.
Take `O=C1Nc2ccccc2NC12COC2` [Compound 30, 3′,4′-Dihydro-1′H-spiro[oxetane-3,2′-quinoxalin]-3′-one]: the melting point was 165 to 170 °C (dec.). For the same molecule, in data set [1] (setting [3]), the concentration for half-maximal inhibition (IC50) came to 81 µM. Moreover, in data set [1], the “LE (ligand efficiency)” value is listed as 0.41.
Taken in the same sequence, the figures for `O=C1Nc2ccccc2NC12CCOCC2` [Compound 31, 3′,4′-Dihydro-1′H-spiro[oxane-4,2′-quinoxalin]-3′-one] were 211 to 226 °C (dec.), 233 µM and 0.32.
Take `O=C1NC2(CCCC2)Nc2ccccc21` [Compound 32, 3′,4′-Dihydro-1′H-spiro[cyclopentane-1,2′-quinazolin]-4′-one]: the melting point was 233 to 238 °C (dec.).
As for `c1ccc2c(c1)NCC1(CCCC1)N2` [Compound 33, 3′,4′-Dihydro-1′H-spiro[cyclopentane-1,2′-quinoxaline]], the melting point was 80 to 82 °C. Besides, the IC50 in data set [1] (setting [3]) was more than 500 µM.
Take `O=C1Nc2ncccc2NC12CCCC2` [Compound 34, 3′,4′-Dihydro-1′H-spiro[cyclopentane-1,2′-pyrido [2,3-b]pyrazin]-3′-one]: the half-maximal inhibitory concentration (IC50) in data set [1] (setting [3]) is more than 500 µM. Besides, the “SENP1 activity in words” value in data set [1] (up to 500 µM) is given as “complete loss of activity”.
For the molecule `O=C1Nc2cscc2NC12CCCC2` [Compound 35, 3′,4′-Dihydro-1′H-spiro[cyclopentane-1,2′-thieno [3,4-b]pyrazin]-3′-one], the melting point is 126 to 130 °C (dec.). Further, the half-maximal inhibitory concentration (IC50) in data set [1] (setting [3]) is 37 µM. In data set [1], the “LE (ligand efficiency)” value is 0.44.
Consider `O=C1Nc2cscc2NC12CCCCC2` [Compound 36, 3′,4′-Dihydro-1′H-spiro[cyclohexane-1,2′-thieno [3,4-b]pyrazin]-3′-one], for which the IC50 in data set [1] (setting [3]) is 61 µM. In data set [1], the “LE (ligand efficiency)” value is 0.39.
Regarding `COc1cccc2c1NC(=O)C1(CCCC1)N2` [Compound 37, 5′-Methoxy-3′,4′-dihydro-1′H-spiro[cyclopentane-1,2′-quinoxalin]-3′-one], the melting point was in the range of 176 to 180 °C. Besides, the IC50 in data set [1] (setting [3]) came to 110 µM. Also, in data set [1], the “LE (ligand efficiency)” value is reported as 0.34.
For `COC(=O)c1cccc2c1NC(=O)C1(CCCC1)N2` [Compound 38, Methyl 3′-oxo-3′,4′-dihydro-1′H-spiro[cyclopentane-1,2′-quinoxaline]-5′-carboxylate], in that order: 147 to 149 °C, 61 µM and 0.33.
Taken in the same sequence, the figures for `COc1ccc2c(c1)NC1(CCCC1)C(=O)N2` [Compound 39, 7′-Methoxy-3′,4′-dihydro-1′H-spiro[cyclopentane-1,2′-quinoxalin]-3′-one] were 224 to 227 °C (dec.), 198 µM and 0.32.
On to `COC(=O)c1ccc2c(c1)NC(=O)C1(CCCC1)N2` [Compound 40, Methyl 3′-oxo-3′,4′-dihydro-1′H-spiro[cyclopentane-1,2′-quinoxaline]-6′-carboxylate], for which the melting point was 246 to 250 °C (dec.). Besides, in data set [1] (setting [3]), the concentration for half-maximal inhibition (IC50) was found to be 202 µM. In addition, the “LE (ligand efficiency)” value in data set [1] was 0.28.
For `O=C1Nc2cc([N+](=O)[O-])ccc2NC12CCCC2` [Compound 41, 6′-Nitro-3′,4′-dihydro-1′H-spiro[cyclopentane-1,2′-quinoxalin]-3′-one], in that order: 275 to 278 °C, 67 µM and 0.34.
For `O=C(Cn1cc(-c2ccccc2)nn1)N1c2ccccc2NC(=O)C12CCCC2` [Compound 44, 1′-[2-(4-Phenyl-1H-1,2,3-triazol-1-yl)acetyl]-3′,4′-dihydro-1′H-spiro[cyclopentane-1,2′-quinoxalin]-3′-one], the melting point is 256 °C (dec.). The IC50 in data set [1] (setting [3]) stood at 23 µM.
For `O=C(Cn1cc(C2CCCCC2)nn1)N1c2ccccc2NC(=O)C12CCCC2` [Compound 45, 1′-[2-(4-Cyclohexyl-1H-1,2,3-triazol-1-yl)acetyl]-3′,4′-dihydro-1′H-spiro[cyclopentane-1,2′-quinoxalin]-3′-one], in that order: 205 °C (dec.) and 19 µM.
Taken in the same sequence, the figures for `O=C(Cn1cc(Cc2ccccc2)nn1)N1c2ccccc2NC(=O)C12CCCC2` [Compound 46, 1′-[2-(4-Benzyl-1H-1,2,3-triazol-1-yl)acetyl]-3′,4′-dihydro-1′H-spiro[cyclopentane-1,2′-quinoxalin]-3′-one] were 203 °C (dec.) and 38 µM.
Consider `O=C(O)c1cccc(-c2cn(CC(=O)N3c4ccccc4NC(=O)C34CCCC4)nn2)c1` [Compound 47, 3-[1-(2-Oxo-2-{3′-oxo-3′,4′-dihydro-1′H-spiro[cyclopentane-1,2′-quinoxalin]-1′-yl}ethyl)-1H-1,2,3-triazol-4-yl]benzoic acid], for which the melting point is 272 °C (dec.). Besides, the 50% inhibitory concentration (IC50) in data set [1] (setting [3]) is 29 µM.
Regarding `O=C(Cn1cc(C2CC2)nn1)N1c2ccccc2NC(=O)C12CCCC2` [Compound 51, 1′-[2-(4-Cyclopropyl-1H-1,2,3-triazol-1-yl)acetyl]-3′,4′-dihydro-1′H-spiro[cyclopentane-1,2′-quinoxalin]-3′-one], the half-maximal inhibitory concentration (IC50) in data set [1] (setting [3]) was more than 200 µM.
On to `COCCc1cn(CC(=O)N2c3ccccc3NC(=O)C23CCCC3)nn1` [Compound 53, 1′-{2-[4-(2-Methoxyethyl)-1H-1,2,3-triazol-1-yl]acetyl}-3′,4′-dihydro-1′H-spiro[cyclopentane-1,2′-quinoxalin]-3′-one], for which the IC50 in data set [1] (setting [3]) is more than 100 µM.
In the case of `O=C(CN1CCN(c2ccccc2)CC1)N1c2ccccc2NC(=O)C12CCCC2` [Compound S1], the half-maximal inhibitory concentration (IC50) in data set [1] (setting [3]) was determined as 152 µM.
The same measure, in the same setting: the figure for `CC1(C)C(=O)Nc2ccccc2N1C(=O)CN1CCN(c2ccccc2)CC1` [Compound S2] is 101 µM.
Same read-out and setting: the result for `CC1(C)C(=O)Nc2ccccc2N1C(=O)COc1ccccc1` [Compound S3] reads more than 200 µM.
Same read-out and setting: the result for `CC1(C)C(=O)Nc2ccccc2N1C(=O)CN1CCc2ccccc21` [Compound S4] reads 153 µM; that for `CN(CC(=O)N1c2ccccc2NC(=O)C1(C)C)Cc1ccccc1` [Compound S5], more than 200 µM.
In the case of `CN(CC(=O)N1c2ccccc2NC(=O)C1(C)C)c1ccccc1` [Compound S6], the half-inhibitory concentration (IC50) in data set [1] (setting [3]) is more than 200 µM.
Still for that read-out and setting: the result for `COc1ccc(N(C)CC(=O)N2c3ccccc3NC(=O)C2(C)C)cc1` [Compound S7] reads more than 200 µM.
